Here are results for nine compounds from patent US8785457B2 (Cellzome Limited, priority 2009, dated 2014).

Holding throughout (format): binding
The target in one experiment is T1, PI3 Kbeta (PI3 Kb) (Homo sapiens, UniProt P42338).
T1 construct: endogenous in cells; host or cells: cell lysate
Nature of the experiment: kinobeads assay, PI3Kbeta. As to conditions: kinobeads assay, Table 6; read-out: Inhibition values (IC50) PI3Kb. In a few lines: (§1)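 Competitive binding in cell lysate: test compounds at various concentrations compete with beads carrying an immobilized phenylmorpholin-chromen ligand. Bead-captured kinases are eluted and quantified by multiplexed immunodetection. IC50 values come from dose-response curves for each kinase.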

Another experiment deals with T2, PI3Kalpha (PI3Ka) (Homo sapiens, UniProt P42336).
T2 construct: endogenous in cells; host or cells: cell lysate
T2 sequence (P42336 whole entry): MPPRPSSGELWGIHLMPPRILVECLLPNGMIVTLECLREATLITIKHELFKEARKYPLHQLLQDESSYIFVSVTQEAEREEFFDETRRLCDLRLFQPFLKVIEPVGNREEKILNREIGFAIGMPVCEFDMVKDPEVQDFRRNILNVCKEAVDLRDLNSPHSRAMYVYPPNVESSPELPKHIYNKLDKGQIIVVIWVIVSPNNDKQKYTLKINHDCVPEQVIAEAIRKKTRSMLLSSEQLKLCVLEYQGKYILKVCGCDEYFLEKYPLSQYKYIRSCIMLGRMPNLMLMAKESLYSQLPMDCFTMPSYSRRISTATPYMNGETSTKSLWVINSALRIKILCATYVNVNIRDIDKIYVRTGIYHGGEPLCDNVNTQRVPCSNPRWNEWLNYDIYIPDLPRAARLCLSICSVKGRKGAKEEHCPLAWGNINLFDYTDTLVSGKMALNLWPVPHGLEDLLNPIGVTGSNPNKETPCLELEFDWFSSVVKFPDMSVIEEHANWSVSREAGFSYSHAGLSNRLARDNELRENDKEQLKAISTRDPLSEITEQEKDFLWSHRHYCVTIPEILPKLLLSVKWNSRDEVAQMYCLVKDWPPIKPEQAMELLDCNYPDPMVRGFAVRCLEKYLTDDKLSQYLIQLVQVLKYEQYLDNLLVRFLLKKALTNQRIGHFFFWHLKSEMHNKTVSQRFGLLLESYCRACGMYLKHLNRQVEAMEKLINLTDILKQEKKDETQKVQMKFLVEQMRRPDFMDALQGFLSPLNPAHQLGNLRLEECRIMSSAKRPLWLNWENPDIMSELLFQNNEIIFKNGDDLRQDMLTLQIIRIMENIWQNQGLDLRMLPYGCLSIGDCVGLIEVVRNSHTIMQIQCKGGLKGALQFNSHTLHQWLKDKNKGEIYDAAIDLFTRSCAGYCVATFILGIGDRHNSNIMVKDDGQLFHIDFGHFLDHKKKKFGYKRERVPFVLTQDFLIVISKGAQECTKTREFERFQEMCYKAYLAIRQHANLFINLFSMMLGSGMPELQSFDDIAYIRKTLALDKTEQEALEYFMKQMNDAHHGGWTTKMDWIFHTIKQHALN
T2 sequence (P27986 whole entry partner): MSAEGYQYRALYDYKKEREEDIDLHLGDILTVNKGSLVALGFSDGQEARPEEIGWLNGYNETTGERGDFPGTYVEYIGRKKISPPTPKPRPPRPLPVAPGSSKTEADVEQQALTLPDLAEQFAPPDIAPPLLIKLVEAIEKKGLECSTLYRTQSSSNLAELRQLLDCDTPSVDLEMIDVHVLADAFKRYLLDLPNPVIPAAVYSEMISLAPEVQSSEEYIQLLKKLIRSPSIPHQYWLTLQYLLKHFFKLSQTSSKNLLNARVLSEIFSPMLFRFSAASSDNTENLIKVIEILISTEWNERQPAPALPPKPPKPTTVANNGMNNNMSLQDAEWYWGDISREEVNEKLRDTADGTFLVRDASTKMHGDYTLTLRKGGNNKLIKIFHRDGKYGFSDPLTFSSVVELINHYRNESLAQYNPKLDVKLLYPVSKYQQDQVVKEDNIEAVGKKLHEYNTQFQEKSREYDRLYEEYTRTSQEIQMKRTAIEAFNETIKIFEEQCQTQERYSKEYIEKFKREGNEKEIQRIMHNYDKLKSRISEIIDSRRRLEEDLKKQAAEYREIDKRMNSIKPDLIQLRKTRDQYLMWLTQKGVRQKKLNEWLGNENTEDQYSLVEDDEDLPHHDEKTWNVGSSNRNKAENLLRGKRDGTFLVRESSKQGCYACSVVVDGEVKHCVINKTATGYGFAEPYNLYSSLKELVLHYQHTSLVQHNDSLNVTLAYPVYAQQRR
Nature of the experiment: kinobeads assay, PI3Kalpha. As to conditions: kinobeads assay, Table 6; for pIC50: read-out: Inhibition values (IC50) PI3Ka. In short, it runs like this:
as §1

Another experiment has as its target T3, PI3 Kgamma (PI3 Kg) (Homo sapiens, UniProt P48736).
T3 construct: endogenous in cells; host or cells: cell lysate
The experiment is described as follows: kinobeads assay, PI3Kgamma. To be noted: kinobeads assay, Table 6; read-out: Inhibition values (IC50) PI3Kg. In a few lines:
as §1

Experiment [1] addresses T4, DNA-dependent protein kinase (DNA-PK) (Homo sapiens, UniProt P78527).
T4 construct: endogenous in cells; host or cells: Jurkat, clone E6-1 (ATCC TIB-152) cell lysate
The experiment is described as follows: kinobeads assay, DNA-PK. As to conditions: kinobeads assay, Table 6; read-out: Inhibition values (IC50) DNAPK. In short, it runs like this: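 Competitive binding in Jurkat cell lysate (5 mg/mL protein) against beads carrying an immobilized phenylmorpholin-chromen ligand, in DP buffer pH 7.4 with NP40, DTT and NaF. Bead-bound kinases were eluted and quantified by antibody dot blot with infrared detection, and IC50 was taken from dose-response curves of a 1:3 dilution series.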

pIC50: −log10 of the molar value.

T3 sequence (P48736 whole entry): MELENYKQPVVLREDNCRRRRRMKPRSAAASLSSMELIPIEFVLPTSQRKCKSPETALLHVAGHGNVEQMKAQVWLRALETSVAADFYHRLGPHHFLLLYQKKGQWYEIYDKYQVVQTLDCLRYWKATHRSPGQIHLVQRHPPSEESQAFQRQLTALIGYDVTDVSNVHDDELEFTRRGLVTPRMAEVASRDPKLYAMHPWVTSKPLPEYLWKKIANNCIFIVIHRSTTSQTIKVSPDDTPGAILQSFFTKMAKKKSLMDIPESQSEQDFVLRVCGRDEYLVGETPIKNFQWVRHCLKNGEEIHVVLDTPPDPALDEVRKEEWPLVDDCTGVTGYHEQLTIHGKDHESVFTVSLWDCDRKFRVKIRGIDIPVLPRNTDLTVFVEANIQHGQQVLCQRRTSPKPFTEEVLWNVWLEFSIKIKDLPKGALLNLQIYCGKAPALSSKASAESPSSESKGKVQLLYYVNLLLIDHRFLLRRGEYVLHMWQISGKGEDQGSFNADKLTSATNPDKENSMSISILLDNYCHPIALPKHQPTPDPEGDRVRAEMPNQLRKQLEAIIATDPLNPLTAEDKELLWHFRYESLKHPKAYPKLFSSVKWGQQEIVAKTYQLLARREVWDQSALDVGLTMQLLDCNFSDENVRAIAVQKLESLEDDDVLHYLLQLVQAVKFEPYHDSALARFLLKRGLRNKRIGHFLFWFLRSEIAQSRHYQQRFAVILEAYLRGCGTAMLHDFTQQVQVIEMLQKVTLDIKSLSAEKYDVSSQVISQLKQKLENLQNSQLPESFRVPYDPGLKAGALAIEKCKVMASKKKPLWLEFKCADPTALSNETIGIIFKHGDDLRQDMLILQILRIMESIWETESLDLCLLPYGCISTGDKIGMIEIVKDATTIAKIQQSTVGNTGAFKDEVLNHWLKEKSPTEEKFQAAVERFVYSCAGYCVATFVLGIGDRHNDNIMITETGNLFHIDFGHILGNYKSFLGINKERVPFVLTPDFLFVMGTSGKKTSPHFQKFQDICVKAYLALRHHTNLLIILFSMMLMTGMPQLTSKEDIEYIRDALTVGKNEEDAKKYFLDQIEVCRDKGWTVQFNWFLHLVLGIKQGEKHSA
T1 sequence (P42338 whole entry): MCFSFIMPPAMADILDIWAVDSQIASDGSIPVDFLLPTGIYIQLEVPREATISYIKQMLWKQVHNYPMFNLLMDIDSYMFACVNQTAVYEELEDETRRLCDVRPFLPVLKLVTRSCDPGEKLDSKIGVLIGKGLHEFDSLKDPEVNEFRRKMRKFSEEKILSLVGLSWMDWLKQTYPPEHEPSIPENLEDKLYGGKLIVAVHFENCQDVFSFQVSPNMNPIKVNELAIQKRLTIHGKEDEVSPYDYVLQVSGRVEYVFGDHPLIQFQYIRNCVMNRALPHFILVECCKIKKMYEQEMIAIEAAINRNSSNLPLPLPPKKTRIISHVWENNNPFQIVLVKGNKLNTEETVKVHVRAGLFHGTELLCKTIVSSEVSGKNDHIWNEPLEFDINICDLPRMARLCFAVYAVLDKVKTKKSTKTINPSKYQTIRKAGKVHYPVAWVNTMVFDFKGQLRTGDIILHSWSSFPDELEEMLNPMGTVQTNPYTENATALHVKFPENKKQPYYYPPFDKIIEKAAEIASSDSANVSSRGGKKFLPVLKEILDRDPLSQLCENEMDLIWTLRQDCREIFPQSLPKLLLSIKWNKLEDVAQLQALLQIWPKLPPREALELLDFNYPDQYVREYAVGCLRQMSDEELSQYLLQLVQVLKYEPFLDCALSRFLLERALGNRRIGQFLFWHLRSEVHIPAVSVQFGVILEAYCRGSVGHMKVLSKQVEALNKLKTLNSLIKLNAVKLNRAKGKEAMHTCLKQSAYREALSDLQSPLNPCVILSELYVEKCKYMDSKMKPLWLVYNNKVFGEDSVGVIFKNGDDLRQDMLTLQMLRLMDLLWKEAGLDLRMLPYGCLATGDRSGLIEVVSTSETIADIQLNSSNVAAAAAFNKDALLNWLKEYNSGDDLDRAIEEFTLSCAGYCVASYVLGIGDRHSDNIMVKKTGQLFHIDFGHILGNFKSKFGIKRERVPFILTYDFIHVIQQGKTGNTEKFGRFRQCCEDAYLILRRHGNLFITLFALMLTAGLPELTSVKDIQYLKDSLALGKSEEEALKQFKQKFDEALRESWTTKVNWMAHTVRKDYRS
T1 sequence (P27986 whole entry partner): as the sequence (P27986 whole entry partner) above

As for `CCNC(=O)Nc1ccc(-c2nc3c(c(N4CCOC[C@@H]4C)n2)CN(C(C)C)C3)cc1` [Example 74, (S)-1-ethyl-3-(4-(6-isopropyl-4-(3-methylmorpholino)-6,7-dihydro-5H-pyrrolo[3,4-d]pyrimidin-2-yl)phenyl)urea], the pIC50 (on PI3 Kbeta (PI3 Kb); at PI3 Kgamma (PI3 Kg); in experiment [1]) was under 5.00 each time. For the same compound, the “Inhibition values (IC50) PI3Ka” value at PI3Kalpha (PI3Ka) is “D (D >10 μM)”.
With `CCNC(=O)Nc1ccc(-c2nc3c(c(N4CCOC[C@@H]4C)n2)CCN(CC(C)C)C3)cc1.O=CO` [Example 76, (S)-1-ethyl-3-(4-(7-isobutyl-4-(3-methylmorpholino)-5,6,7,8-tetrahydropyrido[3,4-d]pyrimidin-2-yl)phenyl)urea formate], the pIC50 (on PI3 Kbeta (PI3 Kb); at PI3 Kgamma (PI3 Kg); in experiment [1]) was under 5.00 in each case. The “Inhibition values (IC50) PI3Ka” value at PI3Kalpha (PI3Ka) is “D (D >10 μM)”.
Regarding `CCNC(=O)Nc1ccc(-c2nc3c(c(N4CCOC[C@@H]4C)n2)CCN(C(=O)OCC)C3)cc1` [Example 77, (S)-ethyl 2-(4-(3-ethylureido)phenyl)-4-(3-methylmorpholino)-5,6-dihydropyrido[3,4-d]pyrimidine-7(8H)-carboxylate], the negative-log IC50 (pIC50) (on PI3 Kbeta (PI3 Kb); at PI3 Kgamma (PI3 Kg); in experiment [1]) was under 5.00 each time. For the same compound, the “Inhibition values (IC50) PI3Ka” value at PI3Kalpha (PI3Ka) was “D (D >10 μM)”.
Take `CCOC(=O)N1CCc2c(nc(-c3ccc(NC(=O)NC4CC4)cc3)nc2N2CCOC[C@@H]2C)C1` [Example 78, (S)-ethyl 2-(4-(3-cyclopropylureido)phenyl)-4-(3-methylmorpholino)-5,6-dihydropyrido[3,4-d]pyrimidine-7(8H)-carboxylate]: the pIC50 (at PI3 Kbeta (PI3 Kb); on PI3 Kgamma (PI3 Kg); in experiment [1]) was under 5.00 each time. Besides, the “Inhibition values (IC50) PI3Ka” value on PI3Kalpha (PI3Ka) is “D (D >10 μM)”.
Take `C[C@H]1COCCN1c1nc(-c2ccc(NC(=O)Nc3cccc(O)n3)cc2)nc2c1CN(C)C2` [Example 80, (S)-1-(6-hydroxypyridin-2-yl)-3-(4-(6-methyl-4-(3-methylmorpholino)-6,7-dihydro-5H-pyrrolo[3,4-d]pyrimidin-2-yl)phenyl)urea]: the pIC50 (as a rule, the IC50 on a negative log10 scale, so that one unit is a factor of ten) at PI3 Kbeta (PI3 Kb) was 5.00 to 6.00; at PI3Kalpha (PI3Ka), 5.00 to 6.00; at PI3 Kgamma (PI3 Kg), 5.00 to 6.00; in experiment [1] it was under 5.00.
With `CCNC(=O)Nc1ccc(-c2nc3c(c(N4CCOC[C@@H]4C)n2)CCN(C(=O)OC)C3)cc1` [Example 81, (S)-methyl 2-(4-(3-ethylureido)phenyl)-4-(3-methylmorpholino)-5,6-dihydropyrido[3,4-d]pyrimidine-7(8H)-carboxylate], the pIC50 (at PI3 Kbeta (PI3 Kb); on PI3 Kgamma (PI3 Kg); in experiment [1]) was under 5.00 throughout. Moreover, the “Inhibition values (IC50) PI3Ka” value on PI3Kalpha (PI3Ka) is on record as “D (D >10 μM)”.
Consider `COC(=O)N1CCc2c(nc(-c3ccc(NC(=O)NC4CC4)cc3)nc2N2CCOC[C@@H]2C)C1` [Example 83, (S)-methyl 2-(4-(3-cyclopropylureido)phenyl)-4-(3-methylmorpholino)-5,6-dihydropyrido[3,4-d]pyrimidine-7(8H)-carboxylate], for which the pIC50 (on PI3 Kbeta (PI3 Kb); on PI3 Kgamma (PI3 Kg); in experiment [1]) was under 5.00 throughout. At PI3Kalpha (PI3Ka), the “Inhibition values (IC50) PI3Ka” value is “D (D >10 μM)”.
In the case of `C[C@H]1COCCN1c1nc(-c2ccc(NC(=O)Nc3ccn(C)n3)cc2)nc2c1CN(C)C2` [Example 84, (S)-1-(1-methyl-1H-pyrazol-3-yl)-3-(4-(6-methyl-4-(3-methylmorpholino)-6,7-dihydro-5H-pyrrolo[3,4-d]pyrimidin-2-yl)phenyl)urea], the pIC50 on PI3 Kbeta (PI3 Kb) is under 5.00; at PI3Kalpha (PI3Ka), 5.00 to 6.00; on PI3 Kgamma (PI3 Kg), under 5.00; in experiment [1] it was under 5.00.
Take `CCNC(=O)Nc1ccc(-c2nc3c(c(N4CCOC[C@@H]4C)n2)CN(C)C3)cc1F` [Example 85, (S)-1-ethyl-3-(2-fluoro-4-(6-methyl-4-(3-methylmorpholino)-6,7-dihydro-5H-pyrrolo[3,4-d]pyrimidin-2-yl)phenyl)urea]: the pIC50 (on PI3 Kbeta (PI3 Kb); on PI3 Kgamma (PI3 Kg); in experiment [1]) was under 5.00 throughout. In addition, at PI3Kalpha (PI3Ka), the “Inhibition values (IC50) PI3Ka” value is on record as “D (D >10 μM)”.
